BindingDB's records for doi:10.1016/j.bmcl.2019.04.027 (Gilead Sciences, 2019)

Columns and labels:
[1] = Inhibition of NS5A L31M mutant in patient derived HCV genotype 2b MD2b-1 infected in human HuH7 replicon cells assessed as reduction in viral replication after 3 days by luciferase reporter gene assay
[2] = Inhibition of NS5A in HCV genotype 2a JFH1 infected in human HuH7 replicon cells assessed as reduction in viral replication after 3 days by luciferase reporter gene assay
[3] = Inhibition of NS5A in HCV genotype 3a S52 infected in human HuH7 transient chimeric replicon cells assessed as reduction in viral replication after 3 days by luciferase reporter gene assay
[4] = Inhibition of NS5A in HCV genotype 4a ED43 infected in human HuH7 transient chimeric replicon cells assessed as reduction in viral replication after 3 days by luciferase reporter gene assay
[5] = Inhibition of NS5A in HCV genotype 1a H77 infected in human HuH7 replicon cells assessed as reduction in viral replication after 3 days by luciferase reporter gene assay
[6] = Inhibition of NS5A in HCV genotype 1b Con1 infected in human HuH7 replicon cells assessed as reduction in viral replication after 3 days by luciferase reporter gene assay
[7] = Inhibition of NS5A L31M mutant in HCV genotype 2a J6 (M31) infected in human HuH7 replicon cells assessed as reduction in viral replication after 3 days by luciferase reporter gene assay
[8] = Inhibition of NS5A L31M mutant in HCV genotype 2a JFH1 infected in human HuH7 replicon cells assessed as reduction in viral replication after 3 days by luciferase reporter gene assay
[9] = Inhibition of NS5A in HCV genotype 2a JFH1 (L31) infected in human HuH7 replicon cells assessed as reduction in viral replication after 3 days by luciferase reporter gene assay
[10] = Inhibition of NS5A in HCV genotype 4a ED43 infected in human HuH7 replicon cells assessed as reduction in viral replication after 3 days by luciferase reporter gene assay
[11] = Inhibition of NS5A in HCV genotype 2b MD2b-1 infected in human HuH7 replicon cells assessed as reduction in viral replication after 3 days by luciferase reporter gene assay

Row | SMILES | EC50 [1] [nM] | EC50 [2] [nM] | EC50 [3] [nM] | EC50 [4] [nM] | EC50 [5] [nM] | EC50 [6] [nM] | EC50 [7] [nM] | EC50 [8] [nM] | EC50 [9] [nM] | EC50 [10] [nM] | EC50 [11] [nM]
1 | COC(=O)N[C@H](C(=O)N1CCC[C@H]1c1nc2ccc3cc4c(cc3c2[nH]1)OCc1cc(-c2cnc([C@@H]3CCCN3C(=O)[C@H](NC(=O)OC)c3ccccc3)[nH]2)ccc1-4)C(C)C | 0.016 | 0.006 | 0.006 | 0.011 | 0.035 | 0.033 | 0.073 | – | – | – | –
2 | COC(=O)N[C@H](C(=O)N1CCC[C@H]1c1ncc(-c2cc3c4c(c2)OCc2cc(-c5cnc([C@@H]6CCCN6C(=O)[C@@H](NC(=O)OC)C6CCC6)[nH]5)cc(c2-4)OC3)[nH]1)C1CCC1 | – | – | – | – | 0.053 | 0.02 | – | 31.3 | 0.02 | – | –
3 | COC(=O)N[C@H](C(=O)N1CCC[C@H]1c1ncc(-c2cc3c4c(c2)OCc2cc(-c5cnc([C@@H]6CCCN6C(=O)[C@@H](NC(=O)OC)C6CCOCC6)[nH]5)cc(c2-4)OC3)[nH]1)C1CCOCC1 | 0.6 | – | – | – | 0.38 | 0.8 | 0.33 | – | 0.074 | – | –
4 | COC(=O)N[C@H](C(=O)N1CCC[C@H]1c1ncc(-c2cc3c4c(c2)COc2cc(-c5cnc([C@@H]6CCCN6C(=O)[C@@H](NC(=O)OC)C(C)C)[nH]5)cc(c2-4)CC3)[nH]1)C(C)C | – | – | – | – | 0.065 | 0.028 | 23.7 | – | 0.016 | – | –
5 | COC(=O)N[C@H](C(=O)N1CCC[C@H]1c1ncc(-c2cc3c4c(c2)OCc2cc(-c5cnc([C@@H]6CCCN6C(=O)[C@@H](NC(=O)OC)C6CCOCC6)[nH]5)cc(c2-4)OC3)[nH]1)C(C)C | – | – | – | – | 0.185 | 0.172 | 1.43 | 1.33 | 0.014 | – | –
6 | COC(=O)N[C@@H](C(=O)N1CCC[C@H]1c1ncc(-c2cc3c4c(c2)OCc2cc(-c5cnc([C@@H]6CCCN6C(=O)[C@H](NC(=O)OC)c6ccccc6)[nH]5)cc(c2-4)OC3)[nH]1)c1ccccc1 | 0.022 | – | – | – | 0.093 | 0.048 | 0.24 | 0.145 | 0.007 | – | –
7 | COC(=O)N[C@H](C(=O)N1CCC[C@H]1c1ncc(-c2ccc3c(c2)COc2cc4c(ccc5nc([C@@H]6CCCN6C(=O)[C@@H](NC(=O)OC)C(C)C)[nH]c54)cc2-3)[nH]1)C(C)C | 0.162 | – | 0.004 | 0.008 | 0.016 | 0.017 | 1.16 | – | 0.004 | – | –
8 | COC(=O)N[C@H](C(=O)N1CCC[C@H]1c1ncc(-c2cc3c4c(c2)COc2cc(-c5cnc([C@@H]6CCCN6C(=O)[C@@H](NC(=O)OC)C(C)C)[nH]5)cc(c2-4)OC3)[nH]1)C(C)C | – | – | – | – | 0.087 | 0.021 | – | 9.85 | 0.019 | – | –
9 | COC(=O)NC(C(=O)N1CCC[C@H]1c1ncc(-c2cc3c4c(c2)OCc2cc(-c5cnc([C@@H]6CCCN6C(=O)[C@@H](NC(=O)OC)C(C)C)[nH]5)cc(c2-4)OC3)[nH]1)c1cccnc1 (stereo not given in full) | 1.21 | – | – | – | 0.75 | 0.58 | 1.8 | – | 0.038 | – | –
10 | COC(=O)N[C@H](C(=O)N1CCC[C@H]1c1ncc(-c2cc3c4c(c2)OCc2cc(-c5cnc([C@@H]6CCCN6C(=O)[C@H](NC(=O)OC)c6ccccc6)[nH]5)cc(c2-4)OC3)[nH]1)C1CCOCC1 | 0.057 | – | – | – | 0.32 | 0.315 | 0.28 | 0.32 | 0.022 | – | –
11 | COC(=O)N[C@H](C(=O)N1CCC[C@H]1c1ncc(-c2ccc3c(c2)COc2cc4c(ccc5nc([C@@H]6CCCN6C(=O)[C@H](NC(=O)OC)c6ccccc6)[nH]c54)cc2-3)[nH]1)C(C)C | 0.012 | 0.004 | 0.005 | 0.008 | 0.022 | 0.021 | 0.134 | – | – | – | –
12 | COC(=O)N[C@H](C(=O)N1C[C@@H](C)C[C@H]1c1nc2ccc3cc4c(cc3c2[nH]1)OCc1cc(-c2cnc([C@@H]3C[C@H](C)CN3C(=O)[C@H](NC(=O)OC)c3ccccc3)[nH]2)ccc1-4)C(C)C | – | 0.018 | 0.05 | – | 0.033 | 0.03 | 0.045 | – | – | 0.063 | 0.027
13 | COC(=O)N[C@H](C(=O)N1CCC[C@H]1c1ncc(-c2ccc3c(c2)COc2c-3ccc3c2ccc2nc([C@@H]4CCCN4C(=O)[C@@H](NC(=O)OC)C(C)C)[nH]c23)[nH]1)C(C)C | 32.3 | – | 0.012 | 0.13 | 0.041 | 0.017 | 20.9 | – | 0.016 | – | –
14 | COC(=O)N[C@@H](C(=O)N1C[C@@H](C)C[C@H]1c1ncc(-c2cc3c4c(c2)OCc2cc(-c5cnc([C@@H]6C[C@H](C)CN6C(=O)[C@H](NC(=O)OC)c6ccccc6)[nH]5)cc(c2-4)OC3)[nH]1)c1ccccc1 | 0.026 | 0.005 | 0.006 | 0.013 | 0.031 | 0.02 | 0.058 | – | – | – | –
15 | COC(=O)N[C@@H](C(=O)N1[C@@H](C)CC[C@H]1c1ncc(-c2cc3c4c(c2)OCc2cc(-c5cnc([C@@H]6CC[C@H](C)N6C(=O)[C@H](NC(=O)OC)c6ccccc6)[nH]5)cc(c2-4)OC3)[nH]1)c1ccccc1 | 0.094 | 0.008 | 0.004 | 0.015 | 0.15 | 0.02 | 1.84 | – | – | – | –
16 | COC(=O)N[C@H](C(=O)N1[C@@H](C)CC[C@H]1c1nc2ccc3cc4c(cc3c2[nH]1)OCc1cc(-c2cnc([C@@H]3C[C@H](C)CN3C(=O)[C@H](NC(=O)OC)c3ccccc3)[nH]2)ccc1-4)C(C)C | – | 0.004 | 0.02 | – | 0.008 | 0.005 | 0.053 | – | – | – | 0.015
17 | COC(=O)N[C@H](C(=O)N1CCC[C@H]1c1ncc(-c2ccc3c4ccc(-c5cnc([C@@H]6CCCN6C(=O)[C@@H](NC(=O)OC)C(C)C)[nH]5)cc4c4ccccc4c3c2)[nH]1)C(C)C | – | – | – | – | 0.092 | 0.005 | – | 6.79 | 0.02 | – | –
18 | COC(=O)N[C@H](C(=O)N1CCC[C@H]1c1ncc(-c2cc3ccc4cc(-c5cnc([C@@H]6CCCN6C(=O)[C@@H](NC(=O)OC)C(C)C)[nH]5)cc5c(=O)c(c2)c3c45)[nH]1)C(C)C | – | – | – | – | 0.22 | 0.013 | – | – | 0.073 | – | –
19 | COC(=O)N[C@H](C(=O)N1CCC[C@H]1c1ncc(-c2cc3c4c(c2)CCc2cc(-c5cnc([C@@H]6CCCN6C(=O)[C@@H](NC(=O)OC)C(C)C)[nH]5)cc(c2-4)CC3)[nH]1)C(C)C | – | – | – | – | 0.156 | 0.021 | – | 13.3 | 0.131 | – | –
20 | COC(=O)N[C@H](C(=O)N1CCC[C@H]1c1ncc(-c2cc3c4c(ccc5cc(-c6cnc([C@@H]7CCCN7C(=O)[C@@H](NC(=O)OC)C(C)C)[nH]6)cc(c54)OC3)c2)[nH]1)C(C)C | 10.2 | – | – | – | 0.063 | 0.022 | 19.7 | – | 0.014 | – | –
21 | CC[C@H](C)[C@H](NC(=O)OC)C(=O)N1CCC[C@H]1c1ncc(-c2cc3c4c(c2)OCc2cc(-c5cnc([C@@H]6CCCN6C(=O)[C@@H](NC(=O)OC)[C@@H](C)CC)[nH]5)cc(c2-4)OC3)[nH]1 | 1.85 | – | – | – | 0.031 | 0.019 | – | 12.1 | 0.009 | – | –
22 | COC(=O)N[C@H](C(=O)N1CCC[C@H]1c1ncc(-c2cc3c4c(c2)OCc2cc(-c5cnc([C@@H]6CCCN6C(=O)[C@@H](NC(=O)OC)C6CCCC6)[nH]5)cc(c2-4)OC3)[nH]1)C1CCCC1 | – | – | – | – | 0.055 | 0.022 | – | > 44 | 0.022 | – | –
23 | COC(=O)N[C@H](C(=O)N1CCC[C@H]1c1ncc(-c2cc3c4c(c2)OCc2cc(-c5cnc([C@@H]6CCCN6C(=O)[C@@H](NC(=O)OC)[C@@H](C)OC)[nH]5)cc(c2-4)OC3)[nH]1)C(C)C | – | – | – | – | 0.087 | 0.079 | – | 3.67 | 0.01 | – | –
24 | COC(=O)N[C@H](C(=O)N1CCC[C@H]1c1ncc(-c2ccc3c4ccc(-c5cnc([C@@H]6CCCN6C(=O)[C@@H](NC(=O)OC)C(C)C)[nH]5)cc4c4nccnc4c3c2)[nH]1)C(C)C | – | – | – | – | 0.528 | 0.018 | – | – | 0.223 | – | –
25 | COC(=O)N[C@H](C(=O)N1CCC[C@H]1c1ncc(-c2cc3c4c(c2)OCc2cc(-c5cnc([C@@H]6CCCN6C(=O)[C@H](NC(=O)OC)c6ccccc6)[nH]5)cc(c2-4)OC3)[nH]1)C(C)C | 0.076 | – | – | – | 0.05 | 0.031 | 1.82 | 0.6 | 0.004 | – | –
26 | COC(=O)N[C@H](C(=O)N1CCC[C@H]1c1ncc(-c2ccc3c4ccc(-c5cnc([C@@H]6CCCN6C(=O)[C@@H](NC(=O)OC)C(C)C)[nH]5)cc4c4nc5ccccc5nc4c3c2)[nH]1)C(C)C | – | – | – | – | 5.99 | 0.01 | – | – | 1.47 | – | –
